The text below walks through data of ChEMBL document CHEMBL1145885, “Synthesis and GABA(A) receptor activity of a 6,19-oxido analogue of pregnanolone” (Bioorg Med Chem Lett, 2003).

Activity calls are given as the source filed them. The rule behind the calls is not given here.

For assay [1], the target named is GABA-A receptor; anion channel (Homo sapiens) (UniProt P14867+P47870+P18507+P28472+P48169+Q99928+Q9UN88+P34903+O00591+O14764+Q8N1C3+P18505+P78334+P47869+P31644+Q16445). The experiment in a line: GABA-induced 36Cl- influx in hamster cerebral cortex synaptoneurosomes at 0.1 uM. As to conditions: Cricetulus griseus. Format: functional, tissue-based.
A further assay relates to Cricetinae gen. sp. The experiment in a line: Compound was tested for reduction of 3-mercaptopropionic acid induced seizures in hamsters at 20 mg/kg; Active. Format: functional, organism-based. Also noted: dose 20 mg/kg. To be noted: Cricetulus griseus.

In the case of `CC(=O)[C@H]1CCC2C3CC4OC[C@@]5(CC[C@@H](O)C=C45)C3CC[C@@]21C` (some centres not stated), the result (in assay [1]; in the assay with Cricetinae gen. sp.) was Active.
